Experimental data as given in the supplement of paper PMC8617591.

Columns and labels:
[1] = test system: Mycobacterium tuberculosis Erdman (autoluminescent); experiment: FIC50 (Loewe) at 50% inhibition (log2); higher = more antagonistic
Protocol: (§1)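 DiaMOND equipotent two-drug combination dose responses against autoluminescent M. tuberculosis Erdman in 8 in vitro models. Read-out is OD600, or luminescence for the intracellular and dormancy models, normalised to untreated wells. Hill-fit Einf, AUC25 and GRinf are potency metrics; FIC50 and FIC90 are Loewe-additivity fractional inhibitory concentrations, given as log2 (negative = synergy). Replicates are averaged.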

[2] = test system: Mycobacterium tuberculosis Erdman (autoluminescent); experiment: FIC90 (Loewe) at 90% inhibition (log2); higher = more antagonistic
Protocol: as §1

[3] = test system: Mycobacterium tuberculosis Erdman (autoluminescent); experiment: Einf, fitted maximum growth inhibition of combination (fraction); higher = stronger maximal inhibition
Protocol: as §1

[4] = test system: Mycobacterium tuberculosis Erdman (autoluminescent); experiment: GRinf, maximum normalised growth rate inhibition (unitless (-1 to 1)); higher = less effect (negative = killing)
Protocol: as §1

[5] = test system: Mycobacterium tuberculosis Erdman (autoluminescent); experiment: AUC25, normalised area under dose response up to IC25 (fraction (0-1)); higher = more potent at low dose
Protocol: as §1

[6] = test system: Mycobacterium tuberculosis Erdman (autoluminescent); experiment: as above; remark: listed apart in the source
Protocol: (§2)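 DiaMOND dose responses (10 doses, 1.5- or 2-fold spacing, equipotent around IC90) of autoluminescent M. tuberculosis Erdman in 8 in vitro models. Read-out is OD600, or luminescence for the intracellular (J774) and dormancy models, background-subtracted and normalised to untreated wells. A 3-parameter Hill fit gives Einf and AUC25 (area to IC25 normalised by IC25); GRinf comes from a Hill fit of the Hafner normalised growth rate. Biological replicates passing QC are averaged. Single drugs only.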

[7] = test system: Mycobacterium tuberculosis Erdman (autoluminescent); experiment: Einf, fitted maximum growth inhibition (fraction); higher = stronger maximal inhibition
Protocol: as §2

[8] = test system: Mycobacterium tuberculosis Erdman (autoluminescent); experiment: GRinf, maximum normalised growth rate inhibition (unitless (-1 to 1)); higher = less effect (negative = killing); remark: listed apart in the source
Protocol: as §2

NC(=O)c1cnccn1 [pyrazinamide] + CO[C@H]1/C=C/O[C@@]2(C)Oc3c(C)c(O)c4c(O)c(c(/C=N/N5CCN(C)CC5)c(O)c4c3C2=O)NC(=O)/C(C)=C\C=C\[C@H](C)[C@H](O)[C@@H](C)[C@@H](O)[C@@H](C)[C@H](OC(C)=O)[C@@H]1C [rifampicin]
Settings | AUC25, [5] | Einf, [3] | FIC50, [1] | FIC90, [2] | GRinf, [4]
in vitro model: acidic pH 5.7, time point: constant (~7 days, model-specific) | 0.0773 | 0.932 | -0.484 | – | -0.451
in vitro model: acidic pH 5.7, time point: terminal (~4-5 doublings, model-specific) | 0.0598 | 0.992 | -0.21 | -1.3 | -0.278
in vitro model: intracellular J774, time point: constant = terminal | – | 0.989 | – | -0.135 | -0.472

Settings | AUC25, [5] | Einf, [3] | FIC50, [1] | FIC90, [2] | GRinf, [4]
in vitro model: butyrate, time point: constant (~7 days, model-specific) | 0.121 | 0.839 | 0.347 | – | 0.188
in vitro model: butyrate, time point: terminal (~4-5 doublings, model-specific) | 0.118 | 0.915 | 0.398 | 2.41 | 0.216
in vitro model: cholesterol 0.05 mM, time point: constant (~7 days, model-specific) | 0.128 | 0.607 | – | – | 0.0467
in vitro model: cholesterol 0.05 mM, time point: terminal (~4-5 doublings, model-specific) | 0.101 | 0.887 | 0.59 | – | -0.0969
in vitro model: cholesterol-high 0.2 mM, time point: constant (~7 days, model-specific) | 0.0909 | 0.91 | 1.2 | – | -0.177
in vitro model: cholesterol-high 0.2 mM, time point: terminal (~4-5 doublings, model-specific) | 0.095 | 1 | 1.54 | 1.5 | -0.819
in vitro model: dormancy (butyrate + nitrate, low O2), time point: constant (~7 days, model-specific) | 0.105 | 0.9 | -0.268 | 0.25 | 0.249
in vitro model: dormancy (butyrate + nitrate, low O2), time point: terminal (~4-5 doublings, model-specific) | 0.0706 | 0.983 | -0.19 | 0.408 | -0.179
in vitro model: standard 7H9 glycerol, time point: constant = terminal | 0.0562 | 0.896 | -0.199 | – | 0.144
in vitro model: valerate, time point: constant (~7 days, model-specific) | 0.054 | 0.761 | 0.449 | – | 0.201
in vitro model: valerate, time point: terminal (~4-5 doublings, model-specific) | 0.0277 | 0.903 | 0.477 | 0.361 | 0.149

CO[C@H]1/C=C/O[C@@]2(C)Oc3c(C)c(O)c4c(O)c(c(/C=N/N5CCN(C)CC5)c(O)c4c3C2=O)NC(=O)/C(C)=C\C=C\[C@H](C)[C@H](O)[C@@H](C)[C@@H](O)[C@@H](C)[C@H](OC(C)=O)[C@@H]1C [rifampicin]
Settings | AUC25, [6] | Einf, [7] | GRinf, [8]
in vitro model: acidic pH 5.7, time point: constant (~7 days, model-specific) | 0.0889 | 0.838 | -0.0959
in vitro model: acidic pH 5.7, time point: terminal (~4-5 doublings, model-specific) | 0.0838 | 0.98 | -0.261
in vitro model: intracellular J774, time point: constant = terminal | – | 0.971 | -0.261

Settings | AUC25, [6] | Einf, [7] | GRinf, [8]
in vitro model: butyrate, time point: constant (~7 days, model-specific) | 0.112 | 0.892 | 0.0824
in vitro model: butyrate, time point: terminal (~4-5 doublings, model-specific) | 0.1 | 0.956 | 0.0686
in vitro model: cholesterol 0.05 mM, time point: constant (~7 days, model-specific) | 0.093 | 0.503 | 0.296
in vitro model: cholesterol 0.05 mM, time point: terminal (~4-5 doublings, model-specific) | 0.0796 | 0.855 | -0.0493
in vitro model: cholesterol-high 0.2 mM, time point: constant (~7 days, model-specific) | 0.0905 | 0.927 | -0.416
in vitro model: cholesterol-high 0.2 mM, time point: terminal (~4-5 doublings, model-specific) | 0.0772 | 0.999 | -0.773
in vitro model: dormancy (butyrate + nitrate, low O2), time point: constant (~7 days, model-specific) | 0.0684 | 0.901 | 0.176
in vitro model: dormancy (butyrate + nitrate, low O2), time point: terminal (~4-5 doublings, model-specific) | 0.0437 | 0.978 | -0.0601
in vitro model: standard 7H9 glycerol, time point: constant = terminal | 0.0814 | 0.877 | 0.161
in vitro model: valerate, time point: constant (~7 days, model-specific) | 0.0576 | 0.86 | 0.0731
in vitro model: valerate, time point: terminal (~4-5 doublings, model-specific) | 0.0385 | 0.943 | 0.0202

CO[C@H]1/C=C/O[C@@]2(C)Oc3c(C)c(O)c4c(O)c(c(/C=N/N5CCN(C6CCCC6)CC5)c(O)c4c3C2=O)NC(=O)/C(C)=C\C=C\[C@H](C)[C@H](O)[C@@H](C)[C@@H](O)[C@@H](C)[C@H](OC(C)=O)[C@@H]1C [rifapentine]
Settings | AUC25, [6] | Einf, [7] | GRinf, [8]
in vitro model: acidic pH 5.7, time point: constant (~7 days, model-specific) | 0.0584 | 0.831 | -0.0781
in vitro model: acidic pH 5.7, time point: terminal (~4-5 doublings, model-specific) | 0.0625 | 0.974 | -0.181
in vitro model: intracellular J774, time point: constant = terminal | – | 0.973 | -0.197

Settings | AUC25, [6] | Einf, [7] | GRinf, [8]
in vitro model: butyrate, time point: constant (~7 days, model-specific) | 0.0929 | 0.891 | 0.117
in vitro model: butyrate, time point: terminal (~4-5 doublings, model-specific) | 0.0749 | 0.942 | 0.0762
in vitro model: cholesterol 0.05 mM, time point: constant (~7 days, model-specific) | 0.104 | 0.553 | 0.164
in vitro model: cholesterol 0.05 mM, time point: terminal (~4-5 doublings, model-specific) | 0.065 | 0.861 | -0.00856
in vitro model: cholesterol-high 0.2 mM, time point: constant (~7 days, model-specific) | 0.0607 | 0.877 | -0.186
in vitro model: cholesterol-high 0.2 mM, time point: terminal (~4-5 doublings, model-specific) | 0.053 | 1 | -0.735
in vitro model: dormancy (butyrate + nitrate, low O2), time point: constant (~7 days, model-specific) | 0.0644 | 0.908 | 0.218
in vitro model: dormancy (butyrate + nitrate, low O2), time point: terminal (~4-5 doublings, model-specific) | 0.0566 | 0.989 | -0.11
in vitro model: standard 7H9 glycerol, time point: constant = terminal | 0.0489 | 0.894 | 0.0516
in vitro model: valerate, time point: constant (~7 days, model-specific) | 0.0524 | 0.855 | 0.056
in vitro model: valerate, time point: terminal (~4-5 doublings, model-specific) | 0.0266 | 0.937 | 0.0374

CO[C@H]1/C=C/O[C@@]2(C)Oc3c(C)c(O)c4c(O)c(c(/C=N/N5CCN(C6CCCC6)CC5)c(O)c4c3C2=O)NC(=O)/C(C)=C\C=C\[C@H](C)[C@H](O)[C@@H](C)[C@@H](O)[C@@H](C)[C@H](OC(C)=O)[C@@H]1C [rifapentine] + CO[C@H]1/C=C/O[C@@]2(C)Oc3c(C)c(O)c4c(O)c(c(/C=N/N5CCN(C)CC5)c(O)c4c3C2=O)NC(=O)/C(C)=C\C=C\[C@H](C)[C@H](O)[C@@H](C)[C@@H](O)[C@@H](C)[C@H](OC(C)=O)[C@@H]1C [rifampicin]
Settings | AUC25, [5] | Einf, [3] | FIC50, [1] | FIC90, [2] | GRinf, [4]
in vitro model: acidic pH 5.7, time point: constant (~7 days, model-specific) | 0.0835 | 0.837 | 0.179 | – | -0.028
in vitro model: acidic pH 5.7, time point: terminal (~4-5 doublings, model-specific) | 0.0696 | 0.967 | 0.0519 | -0.186 | -0.182
in vitro model: intracellular J774, time point: constant = terminal | – | 0.934 | – | -0.3 | -0.195

Settings | AUC25, [5] | Einf, [3] | FIC50, [1] | FIC90, [2] | GRinf, [4]
in vitro model: butyrate, time point: constant (~7 days, model-specific) | 0.101 | 0.887 | 0.0385 | – | 0.0983
in vitro model: butyrate, time point: terminal (~4-5 doublings, model-specific) | 0.0929 | 0.958 | -0.077 | 0.00202 | 0.0599
in vitro model: cholesterol 0.05 mM, time point: constant (~7 days, model-specific) | 0.125 | 0.57 | -0.0632 | – | 0.181
in vitro model: cholesterol 0.05 mM, time point: terminal (~4-5 doublings, model-specific) | 0.085 | 0.883 | -0.246 | 0.16 | -0.0494
in vitro model: cholesterol-high 0.2 mM, time point: constant (~7 days, model-specific) | 0.0915 | 0.921 | -0.073 | 0.413 | -0.231
in vitro model: cholesterol-high 0.2 mM, time point: terminal (~4-5 doublings, model-specific) | 0.0669 | 0.999 | 0.0935 | -0.0799 | -0.64
in vitro model: dormancy (butyrate + nitrate, low O2), time point: constant (~7 days, model-specific) | 0.062 | 0.902 | 0.0837 | -0.356 | 0.162
in vitro model: dormancy (butyrate + nitrate, low O2), time point: terminal (~4-5 doublings, model-specific) | 0.0354 | 0.979 | 0.0345 | -0.0772 | -0.0822
in vitro model: standard 7H9 glycerol, time point: constant = terminal | 0.0721 | 0.907 | 0.198 | 0.54 | 0.101
in vitro model: valerate, time point: constant (~7 days, model-specific) | 0.0488 | 0.815 | 0.231 | – | 0.136
in vitro model: valerate, time point: terminal (~4-5 doublings, model-specific) | 0.0288 | 0.921 | -0.0221 | -0.019 | 0.0885
